Measured values from EP1379539B1, “METHODS AND MATERIALS FOR MAKING AND USING TRANSGENIC DICAMBA-DEGRADING ORGANISMS” (BOARD OF REGENTS OF THE UNIVERSITY OF NEBRASKA, priority 2001, dated 2002).
Where two headings read alike, the source gives them in different places.

What was measured:
wild type tobacco plants = conditions: for effect on non-transgenic plants: sprayed
[1] = tested on: Transgenic tobacco plants bearing oxygenase gene constructs but lacking the transit peptide coding sequence; conditions: sprayed, 0.5 lbs/acre to 5 lbs/acre tested
[2] = tested on: transgenic tobacco plants bearing the oxygenase gene constructs with the transit peptide; conditions: 0.5 lbs/acre to 5 lbs/acre tested
[3] = tested on: Transgenic plants containing the three gene construct (oxygenase, ferredoxin and reductase genes)

COc1c(Cl)ccc(Cl)c1C(=O)O [dicamba, 2-methoxy-3,6-dichlorobenzoic acid]
effect on non-transgenic plants (wild type tobacco plants; 0.125 Ib/acre dicamba): reduced growth, withering and severe necrosis
sensitivity of the wild type plants (wild type tobacco plants; 0.5 lbs/acre of dicamba, sprayed at 10-12-leaf stage with non-ionic surfactant): 100%
effect on non-transgenic plants (wild type tobacco plants; same amounts of dicamba as the transgenic plants (0.5 lbs/acre to 5 lbs/acre)): reduced growth, withering and severe necrosis
dicamba treatment to which plants displayed resistance (grew and were healthy) [1]: at least 2.5 lbs/acre
concentration of dicamba at which sprayed plants grew and were healthy [2]: up to 5 lbs/acre
effect on transgenic plants ([3]; 0.125 Ib/acre dicamba, sprayed): grew and were healthy
predicted resistance to dicamba ([3]; predicted from plants with the oxygenase construct alone): ≥ 2.5 Ib/acre
